Source: patent publication US20230094952A1, “Method for Culturing Hematopoietic Stem Cells” (Sumitomo Pharma Co., Ltd., priority 2019, published 2023)

System: mouse long-term hematopoietic stem cells
Experiment: Reproducibility and concentration dependence test: 1-week culture of sorted Hoxb5-tri-mCherry mouse long-term hematopoietic stem cells, flow cytometry
Type: cell-based
Conditions: Table 4, day 7 of culture, n=2
Procedure: Mice with insertion of a nucleic acid sequence containing three copies of a gene encoding the fluorescent protein mCherry to the C terminus of the mouse endogenous HoxB5 gene (Hoxb5-tri-mCherry) were used (triple-mCherry Hoxb5 knock-in mice; Non Patent Literature 1). The mice were housed under environmental conditions such that the room temperature and the humidity were 20 to 26° C. and 40 to 70%, respectively, under light for 12 hours and under dark for 12 hours (illumination: 8:00 a.m. to 8:00 p.m.).
Bone marrow cells were collected from the tibia, femur, humerus, and pelvis in each side of each of the mice, and gathered in a mortar. A buffer obtained by adding thermally deactivated bovine serum (manufactured by Gibco) at a final concentration of 2% and EDTA at a final concentration of 2 mM to Ca^2+-free and Mg^2+-free PBS was added, and the resultant was broken with a pestle to obtain a cell population including hematopoietic stem cells.
First, the thus-obtained cell population including hematopoietic stem cells was passed through strainers (meshes) of 100 μm, 70 μm, and 40 μm. The cell population was stained with an APC-binding anti-c-Kit (2B8) and fractionated with anti-APC magnetic beads and an LS column (both manufactured by Miltenyi Biotec) to obtain a cell population enriched with hematopoietic stem cells and progenitor cells.
Subsequently, cells being c-Kit-positive were stained with antibodies for the following cell surface markers.
Staining with the antibodies was performed at 4° C., and the cells were incubated for 30 minutes. For staining with the CD34 antibody, the cells were incubated for 90 minutes. Dead cell staining was performed with SYTOX Red Dead Cell Stain (manufactured by Life Technologies) in accordance with a method recommended by the manufacturer.
Flow cytometry analysis and cell classification (cell sorting) were performed with a FACS Aria II cell sorter (manufactured by BD Biosciences), wherein Lineage-negative, c-Kit-positive, Sca-1-positive, Flk2-negative, CD34-negative or weakly CD34-positive, CD150-positive, and mCherry-positive fractions were regarded as long-term hematopoietic stem cells, and analysis was performed with the software FlowJo (manufactured by Tree Star, Inc.).
The cells after classification were seeded in a 96-well plate. A cell culture medium was prepared by adding Stem Cell Factor (SCF, manufactured by PeproTech, Inc.) and Thrombopoietin (TPO, manufactured by PeproTech, Inc.) to StemSpan SFEM culture medium (manufactured by […] Technologies Inc.) and added in advance to a cell culture 96-well plate (manufactured by BD Biosciences) at 100 μL/well, and the cells sorted with the FACS Aria II cell sorter (BD Biosciences) were then seeded at 10 cells/well.
[…] Thereafter, the cells were cultured in a CO2 incubator under conditions of 37° C. and 5% CO2 for 1 week.
After culture, the cells were stained with the antibodies for the surface markers c-Kit and Sca-1, Ter-119, B220, CD3, CD4, CD8a, Gr-1, and CD11b, and the ratio and post-growth cell count of a KLS fraction (c-Kit^+, Lin^−, Sca-1^+) or an mCherry-positive fraction given with use of a FACS Aria II cell sorter were analyzed by using FlowJo (BD Biosciences). The mCherry-positive fraction is a cell fraction expressing the Hoxb5 gene, and the KLS fraction is a cell fraction being c-Kit-positive, Lin-negative, and Sca-1-positive, and includes hematopoietic stem cells and multipotent progenitor cells as main components. […]

| Compound | KLS-positive rate (compound 0.1 μM) [%] | Viable cell count (compound 0.1 μM) [cell] | mCherry-positive rate (compound 0.1 μM) [%] | KLS-positive rate (compound 0.3 μM) [%] | Viable cell count (compound 0.3 μM) [cell] | mCherry-positive rate (compound 0.3 μM) [%] | KLS-positive rate (compound 1 μM) [%] | Viable cell count (compound 1 μM) [cell] | mCherry-positive rate (compound 1 μM) [%] | KLS-positive rate (compound 3 μM) [%] | Viable cell count (compound 3 μM) [cell] | mCherry-positive rate (compound 3 μM) [%] | KLS-positive rate (compound 10 μM) [%] | Viable cell count (compound 10 μM) [cell] | mCherry-positive rate (compound 10 μM) [%] |
| --- | --- | --- | --- | --- | --- | --- | --- | --- | --- | --- | --- | --- | --- | --- | --- |
| CC(=O)OCCO[C@@H]1O[C@@H]2O[C@@]3(C)CC[C@H]4[C@H](C)CC[C@@H]([C@H]1C)[C@@]24OO3 [Example 1-27, 2-{[(3R,5aS,6R,8aS,9R,10R,12R,12aR)-3,6,9-Trimethyldecahydro-12H-3,12-epoxypyrano[4,3-j][1,2]benzodioxepin-10-yl]oxy}ethyl acetate] | 45.4 | 122.0 | 44.3 | 75.0 | 14.5 | 94.7 | 100.0 | 6.0 | 100.0 | 90.0 | 6.0 | 100.0 | 49.8 | 17.5 | 100.0 |
| C[C@H]1[C@@H](OCc2ccccc2)O[C@@H]2O[C@@]3(C)CC[C@H]4[C@H](C)CC[C@@H]1[C@@]24OO3 [Example 1-24, (3R,5aS,6R,8aS,9R,10S,12R,12aR)-10-(benzyloxy)-3,6,9-trimethyldecahydro-12H-3,12-epoxypyrano[4,3-j][1,2]benzodioxepine] | 73.6 | 18.0 | 94.1 | 0.0 | 0.5 | 50.0 | 0.0 | 0.5 | 50.0 | 0.0 | 0.0 | 0.0 | 0.0 | 0.5 | 0.0 |
| CS[C@H]1O[C@@H]2O[C@@]3(C)CC[C@H]4[C@H](C)CC[C@@H]([C@H]1C)[C@@]24OO3 [Example 1-4, (3R,5aS,6R,8aS,9R,10R,12S,12aR)-3,6,9-trimethyl-10-(methylsulfanyl)decahydro-12H-3,12-epoxypyrano[4,3-j][1,2]benzodioxepine] | 17.2 | 353.0 | 8.0 | 37.9 | 103.0 | 44.7 | 31.1 | 181.5 | 85.2 | 30.7 | 87.5 | 100.0 | 61.4 | 7.5 | 90.9 |
| C[C@H]1[C@H](N2CCOCC2)O[C@@H]2O[C@@]3(C)CC[C@H]4[C@H](C)CC[C@@H]1[C@@]24OO3 [Example 1-13, 4-[(3R,5aS,6R,8aS,9R,10R,12R,12aR)-3,6,9-Trimethyldecahydro-12H-3,12-epoxypyrano[4,3-j][1,2]benzodioxepin-10-yl]morpholine] | 22.1 | 201.0 | 24.3 | 14.7 | 605.0 | 2.9 | 21.0 | 136.5 | 6.7 | 0.0 | 0.0 | 0.0 | 0.0 | 0.0 | 0.0 |
